# Test results published in patent US12690586B2, “Herbicidal malonamides” (BASF SE, priority 2020, dated 2026).
# Columns and labels:
# Experiment in all cases: greenhouse post-emergence herbicidal test
# Type in all cases: in vivo
# Conditions in all cases: post-emergence method, application rate 0.125 kg/ha; scale 0 to 100
# [1] = test system: Abutilon theophrasti (ABUTH)
# Description: (§1) The culture containers used were plastic flowerpots containing loamy sand with approximately 3.0% of humus as the substrate. The seeds of the test plants were sown separately for each species.
# (§2) For the pre-emergence treatment, the active ingredients, which had been suspended or emulsified in water, were applied directly after sowing by means of finely distributing nozzles. The containers were irrigated gently to promote germination and growth and subsequently covered with transparent plastic hoods until the test plants had rooted. This cover caused uniform germination of the test plants, unless this had been impaired by the active ingredients. For the post-emergence treatment, the test plants were first grown to a height of 3 to 15 cm, depending on the plant habit, and only then treated with the active ingredients which had been suspended or emulsified in water. For this purpose, the test plants were either sown directly and grown in the same containers, or they were first grown separately as seedlings and transplanted into the test containers a few days prior to treatment.
# (§3) Depending on the species, the test plants were kept at 10-25° C. or 20-35° C., respectively. The test period extended over 2 to 4 weeks. During this time, the test plants were tended, and their response to the individual treatments was evaluated.
# (§4) Evaluation was carried out using a scale from 0 to 100. 100 means no emergence of the test plants, or complete destruction of at least the aerial moieties, and 0 means no damage, or normal course of growth. A good herbicidal activity is given at values of 65 to 90 and a very good herbicidal activity is given at values of 90 to 100.
# (§5) The test plants used in the greenhouse experiments were of the following species: […]
# [2] = test system: Alopecurus myosuroides (ALOMY)
# Description: as §1, §2, §3, §4, §5
# Avena fatua (AVEFA) = test system: Avena fatua (AVEFA)
# Description: as §1, §2, §3, §4, §5
structure (smiles),measurement,setting,value
"COC(=O)[C@@H]1C=C[C@H](NC(=O)C2(C(=O)Nc3cc(F)cc(F)c3)CC2)C1 [I.2, methyl (1S,4R)-4-{1-[(3,5-difluorophenyl)carbamoyl]cyclopropaneamido}cyclopent-2-ene-1-carboxylate]",herbicidal activity against ABUTH,[1],good (A good herbicidal activity is given at values of 65 to 90)
same,herbicidal activity against ALOMY,[2],very good (a very good herbicidal activity is given at values of 90 to 100)
same,herbicidal activity against AVEFA,Avena fatua (AVEFA),very good (a very good herbicidal activity is given at values of 90 to 100)
